This passage reports IC50 results from patent US20130072523A1, “ANALOGUES FOR THE TREATMENT OR PREVENTION OF FLAVIVIRUS INFECTIONS” (VERTEX PHARMACEUTICALS INCORPORATED, priority 2009, published 2013).

Molecules are shown by their SMILES.

In this assay the test system is HCV 1b genotype. The experiment in a line: Cell-based luciferase reporter HCV (Ib) RNA replication assay (Huh-ET replicon cells). The conditions noted are these: Hepatitis C virus, 96 h; HCV 1b genotype replicon, 4 days incubation, luciferase readout. The text has this: Cell-Based Luciferase Reporter HCV (Ib) RNA Replication Assay Cell Culture
Replicon cell lines Huh-5.2 are derived from the Huh-7 hepatocarcinoma cell line are maintained in culture as generally described in Krieger, N; Lohmann, V; Bartenschlager, R. Enhancement of hepatitis C virus RNA replication by cell culture-adaptive mutations. J. Virol. 2001, 75, 4614-4624. The Huh-5.2 cells contain the highly cell culture-adapted replicon I389 Luc-ubi-neo/NS3-375.1 construct that carries, in addition to the neomycin gene, an integrated copy to the firefly luciferase gene (Krieger, N; Lohmann, V; Bartenschlager, R. Enhancement of hepatitis C virus RNA replication by cell culture-adaptive mutations. J. Virol. 2001, 75, 4614-4624). This cell line allows measurement of HCV RNA replication and translation by measuring luciferase activity. It has been previously shown that the luciferase activity tightly follows the replicon RNA level in these cells (Krieger, N; Lohmann, V; Bartenschlager, R. Enhancement of hepatitis C virus RNA replication by cell culture-adaptive mutations. J. Virol. 2001, 75, 4614-4624). The Huh-ET cell line has the same features as those mentioned for Huh-5.2 cell line, except that ET cells are more robust and contain an adaptative mutation in the HCV NS4B gene instead of NS5A. Both cell lines are maintained in cultures at a sub-confluent level (<85%) as the level of replicon RNA is highest in actively proliferating cells. The culture media used for cell passaging consist of DMEM (Gibco BRL Laboratories, Mississauga, ON, Canada) supplemented with 10% foetal bovine serum with 1% penicilin/streptomycin, 1% glutamine, 1% sodium pyruvate, 1% non-essential amino acids, and 180 μg/ml of G418 final concentration. Cells are incubated at 37° C., in an atmosphere of 5% CO2 and passaged twice a week to maintain sub-confluence.
Approximately 3000 viable Huh-ET cells (100 μl) are plated per well in a white opaque 96-well microtiter plate. The cell culture media used for the assay is the same as described above except that it contains no G418 and no phenol red. After an incubation period of 3-4 hours at 37° C. in a 5% CO2 incubator, compounds (100 μl) are added at various concentrations. Cells are then further incubated for 4 days at 37° C. in a 5% CO2 incubator. Thereafter, the culture media is removed and cells are lysed by the addition of 95 μL of the luciferase buffer (luciferin substrate in buffered detergent). Cell lysates are incubated at room temperature and protected from direct light for at least 10 minutes. Plates are read for luciferase counts using a luminometer (Wallac MicroBeta Trilux, Perkin Elmer™, MA, USA).
The 50% inhibitory concentrations (IC50s) for inhibitory effect are determined from dose response curves using eleven concentrations per compound in duplicate. Curves are fitted to data points using nonlinear regression analysis, and IC50s are interpolated from the resulting curve using GraphPad Prism software, version 2.0 (GraphPad Software Inc., San Diego, Calif., USA).
EC50 ranges are presented in micromolar as follows: μM+++<=0.005<++<=5.0<+.
On the technique in general: In a reporter assay the amount or activity of a reporter protein is the signal.

A word on the IC50: it is the point on the concentration scale where inhibition reaches its midpoint. Low readings indicate greater potency, high ones weaker potency. Take `CC[C@H]1C[C@@H](c2ncc(C#Cc3ccc(C#Cc4cnc([C@@H]5C[C@H](CC)CN5C(=O)[C@@H](NC(=O)OC)C(C)C)[nH]4)cc3)[nH]2)N(C(=O)[C@@H](NC(=O)OC)C(C)C)C1` [Compound 41]: the IC50 is not above 5 nM.

`[2H]C([2H])([2H])C([2H])(C([2H])([2H])[2H])[C@@]([2H])(NC(=O)OC)C(=O)N1C[C@@H](C)C[C@H]1c1ncc(C#Cc2ccc(C#Cc3cnc([C@@H]4C[C@H](C)CN4C(=O)[C@@H](NC(=O)OC)C(C)C)[nH]3)cc2)[nH]1` [Compound 44] registered an IC50 not above 5 nM.

In turn, `COC(=O)N[C@H](C(=O)N1C[C@@H](C)C[C@H]1c1ncc(C#Cc2ccc(C#Cc3cnc([C@@H]4C[C@H](C)CN4C(=O)[C@@H](NC(=O)OC)C(C)C)[nH]3)c3c2OC(F)(F)O3)[nH]1)C(C)C` [Compound 45] came in with an IC50 not above 5 nM.

In turn, `COC(=O)N[C@H](C(=O)N[C@H](C(=O)N1C[C@@H](C)C[C@H]1c1ncc(C#Cc2ccc(C#Cc3cnc([C@@H]4C[C@H](C)CN4C(=O)[C@@H](NC(=O)OC)C(C)C)[nH]3)cc2)[nH]1)C(C)C)C(C)C` [Compound 46] gave a half-maximal inhibitory concentration (IC50) not above 5 nM.

As to `COC(=O)N[C@H](C(=O)N1C[C@@H](C)C[C@H]1c1nc(C)c(-c2cc3sc(-c4[nH]c([C@@H]5C[C@H](C)CN5C(=O)[C@@H](NC(=O)OC)C(C)C)nc4C)cc3s2)[nH]1)C(C)C` [Compound 47], the 50% inhibitory concentration (IC50) was not above 5 nM.

With `COC(=O)N[C@H](C(=O)N1C[C@@H](C)C[C@H]1c1nc(C(F)(F)F)c(C#Cc2ccc(C#Cc3[nH]c([C@@H]4C[C@H](C)CN4C(=O)[C@@H](NC(=O)OC)C(C)C)nc3C(F)(F)F)cc2)[nH]1)C(C)C` [Compound 48], the 50% inhibitory concentration (IC50) was not above 5 nM.

In the case of `COC(=O)N[C@H](C(=O)N1C[C@@H](C)C[C@H]1c1nc(-c2ccc3cc(-c4c[nH]c([C@@H]5C[C@H](C)CN5C(=O)[C@@H](NC(=O)OC)C(C)C)n4)ccc3c2)c[nH]1)C(C)C` [Compound 49], the IC50 is not above 5 nM.

Turning to `COC(=O)N[C@H](C(=O)N1C[C@@H](C)C[C@@H]1c1ncc(C#Cc2ccc(C#Cc3cnc([C@@H]4C[C@H](C)CN4C(=O)[C@@H](NC(=O)OC)C(C)C)[nH]3)cc2)[nH]1)C(C)C` [Compound 52], the IC50 lay within 5 to 5000 nM.

As for `COC(=O)N[C@H](C(=O)N1C[C@@H](C)C[C@H]1c1nc(C#CC#Cc2c[nH]c([C@@H]3C[C@H](C)CN3C(=O)[C@@H](NC(=O)OC)C(C)C)n2)c[nH]1)C(C)C` [Compound 53], the IC50 was not above 5 nM.

Regarding `COC(=O)N[C@H](C(=O)N1C[C@@H](C)C[C@H]1c1ncc(C#Cc2ccc(C#Cc3cnc([C@@H]4C[C@H](C)CN4C(=O)OC(C)(C)C)[nH]3)cc2)[nH]1)C(C)C` [Compound 54], the IC50 was not above 5 nM.

As for `COC(=O)N[C@H](C(=O)N1C[C@@H](C)C[C@H]1c1nc(C#Cc2ccc3nc(C#Cc4c[nH]c([C@@H]5C[C@H](C)CN5C(=O)[C@@H](NC(=O)OC)C(C)C)n4)ccc3c2)c[nH]1)C(C)C` [Compound 55], the IC50 was not above 5 nM.

In the case of `COC(=O)N[C@H](C(=O)N1C[C@@H](C)C[C@H]1c1ncc(C#Cc2ccc(C#Cc3cnc([C@@H]4C[C@H](C)CN4C(=O)[C@@H](NC(=O)OC)C(C)C)[nH]3)nc2)[nH]1)C(C)C` [Compound 56], the IC50 was not above 5 nM.

Turning to `COC(=O)N[C@H](C(=O)N1C[C@@H](C)C[C@H]1c1nc(C#Cc2ccc(C#Cc3c[nH]c([C@@H]4C[C@H](C)CN4C(=O)[C@@H](NC(=O)OC)C(C)C)n3)c(C(=O)OC)c2)c[nH]1)C(C)C` [Compound 57], the IC50 was not above 5 nM.

Take `COC(=O)N[C@H](C(=O)N1C[C@@H](C)C[C@H]1c1ncc(-c2ccc(-c3[nH]c([C@@H]4C[C@H](C)CN4C(=O)[C@@H](NC(=O)OC)C(C)C)nc3-c3cc4sccc4s3)cc2)[nH]1)C(C)C` [Compound 58]: the concentration for half-maximal inhibition (IC50) is not above 5 nM.

`COC(=O)N[C@H](C(=O)N1C[C@@H](C)C[C@H]1c1nc(CO)c(C#Cc2ccc(C#Cc3[nH]c([C@@H]4C[C@H](C)CN4C(=O)[C@@H](NC(=O)OC)C(C)C)nc3CO)cc2)[nH]1)C(C)C` [Compound 59] returned a 50% inhibitory concentration (IC50) of 5 to 5000 nM.

`COC(=O)N[C@H](C(=O)N1C[C@@H](C)C[C@H]1c1nc(C#Cc2ccc(C#Cc3c[nH]c([C@@H]4C[C@H](C)CN4C(=O)[C@@H](NC(=O)OC)C(C)C)n3)s2)c[nH]1)C(C)C` [Compound 60] returned an IC50 not above 5 nM.

`COC(=O)N[C@H](C(=O)N1C[C@@H](C)C[C@H]1c1nc(C#Cc2ccc3sc(C#Cc4c[nH]c([C@@H]5C[C@H](C)CN5C(=O)[C@@H](NC(=O)OC)C(C)C)n4)cc3c2)c[nH]1)C(C)C` [Compound 61] registered an IC50 not above 5 nM.

`COC(=O)N[C@H](C(=O)N1C[C@@H](C)C[C@H]1c1nc(C#Cc2ccc(C#Cc3c[nH]c([C@@H]4C[C@H](C)CN4C(=O)[C@@H](NC(=O)OC)C(C)C)n3)c(C#N)c2)c[nH]1)C(C)C` [Compound 62] came in with an IC50 not above 5 nM.

The compound `COC(=O)N[C@H](C(=O)N1C[C@@H](C)C[C@H]1c1nc(C#Cc2ccc(C#Cc3c[nH]c([C@@H]4C[C@H](C)CN4C(=O)[C@@H](NC(=O)OC)C(C)C)n3)c(Cl)c2)c[nH]1)C(C)C` [Compound 63] returned an IC50 not above 5 nM.

`COC(=O)N[C@H](C(=O)N1C[C@@H](C)C[C@H]1c1ncc(C#Cc2ccc(C#Cc3cnc([C@@H]4C[C@H](CO)CN4C(=O)[C@@H](NC(=O)OC)C(C)C)[nH]3)cc2)[nH]1)C(C)C` [Compound 64] displayed an IC50 not above 5 nM.

The compound `C[C@H]1C[C@@H](c2ncc(-c3ccc(-c4ccc(-c5cnc([C@@H]6C[C@H](C)CN6C(=O)OC(C)(C)C)[nH]5)s4)cc3)[nH]2)N(C(=O)OC(C)(C)C)C1` [Compound 65] showed an IC50 of 5 to 5000 nM.

Compound `COC(=O)N[C@H](C(=O)N1C[C@@H](C)C[C@H]1c1nc(C)c(C#Cc2cc3sc(C#Cc4[nH]c([C@@H]5C[C@H](C)CN5C(=O)[C@@H](NC(=O)OC)C(C)C)nc4C)cc3s2)[nH]1)C(C)C` [Compound 66] showed an IC50 not above 5 nM.

In turn, `COC(=O)N[C@H](C(=O)N1C[C@@H](C)C[C@H]1c1nc(C#Cc2ccc3cc(C#Cc4c[nH]c([C@@H]5C[C@H](C)CN5C(=O)[C@@H](NC(=O)OC)C(C)C)n4)sc3c2)c[nH]1)C(C)C` [Compound 67] displayed an IC50 not above 5 nM.

`COC(=O)N[C@H](C(=O)N1C[C@@H](OC)C[C@H]1c1ncc(C#Cc2ccc(C#Cc3cnc([C@@H]4C[C@H](OC)CN4C(=O)[C@@H](NC(=O)OC)C(C)C)[nH]3)cc2)[nH]1)C(C)C` [Compound 68] registered an IC50 not above 5 nM.

With `COC(=O)N[C@H](C(=O)N1C[C@@H](C)C[C@H]1c1ncc(-c2ccc(-c3cc4sc(-c5cnc([C@@H]6C[C@H](C)CN6C(=O)[C@@H](NC(=O)OC)C(C)C)[nH]5)cc4s3)cc2)[nH]1)C(C)C` [Compound 69], the IC50 is not above 5 nM.

In the case of `COC(=O)N[C@H](C(=O)N1CCC[C@H]1c1nc(-c2cc3sc(-c4c[nH]c([C@@H]5CCCN5C(=O)[C@@H](NC(=O)OC)C(C)C)n4)cc3s2)c[nH]1)C(C)C` [Example 25, Methyl N-[(1S)-1-[(2S)-2-[4-[2-[2-[(2S)-1-[(2S)-2-(methoxycarbonylamino)-3-methyl-butanoyl]pyrrolidin-2-yl]-1H-imidazol-4-yl]thieno[3,2-b]thiophen-5-yl]-1H-imidazol-2-yl]pyrrolidine-1-carbonyl]-2-methyl-propyl]carbamate], the IC50 is not above 5 nM.

The compound `COC(=O)N[C@H](C(=O)N1CC(C)(C)C[C@H]1c1nc(C)c(C#Cc2ccc(C#Cc3[nH]c([C@@H]4CC(C)(C)CN4C(=O)[C@@H](NC(=O)OC)C(C)C)nc3C)cc2)[nH]1)C(C)C` [Example 30] came in with an IC50 not above 5 nM.

Compound `COC(=O)N[C@H](C(=O)N1[C@@H](C)CC[C@H]1c1ncc(C#Cc2ccc(C#Cc3cnc([C@@H]4CC[C@H](C)N4C(=O)[C@@H](NC(=O)OC)C(C)C)[nH]3)cc2)[nH]1)C(C)C` [Example 42] displayed an IC50 not above 5 nM.

`COC(=O)N[C@H](C(=O)N1CC(C)(C)C[C@H]1c1ncc(C#Cc2ccc(C#Cc3cnc([C@@H]4CC(C)(C)CN4C(=O)[C@@H](NC(=O)OC)C(C)C)[nH]3)cc2)[nH]1)C(C)C` [Example 43]: the IC50 is not above 5 nM.
